How the values were obtained:
IGROV1 CR cells [1] = experiment: Drug synergy screening: SRB proliferation assay with 2 μM cisplatin; format: cell-based
Method: (A) Collection of Momordin Ic (Mc) natural compound analogues. […] Cell proliferation was determined by the sulforhodamine B (SRB) assay. […] IGROV1 CR cells were incubated with Mc at indicated concentrations for 48 h and then harvested for Western blot for indicated proteins. […] IGROV1 CR cells were incubated with UA and then treated as in C. […] Intensity of SUMOylated JAK2 was measured by Quantity One software. […] Recombinant His‐JAK2 was SUMOylated by in vitro SUMOylation assay, and then SUMOylated JAK2 proteins were incubated with or without recombinant GST‐SENP1 together with Mc for 3 h. […] In vitro assay was performed as in (F). […]

IGROV1 CR cells [2] = experiment: Viability of IGROV1 CR cells treated with compound alone (SRB); format: cell-based; settings: 48 hrs
Method: Cel l proliferation was determined by SR B assay. (B) Viability of IG ROV 1 CR cells treated by indicated compounds fo r 48 hrs. SRB assay wa s used to determine cell viabil ity. […]
1. Antibodies and re a ge nt s […]
[…] Momordin Ic ( A14773; Adooq Biosc ience) was dissolved in DMSO. Ursolic acid (A10961; Adooq Bioscience) wa s dissolved in DMSO. Collection of Mc natural compound an alogs were pu rch ase d fro m Sigma. Detailed proced ure to sy nt h e s ize UA derivatives was in c lu d ed in suppleme ntal material and methods.
2. Cell culture and resistance cell line establishment […]
were cultured at 37 °C in DM EM with 10% Fe ta l Bovine Serum (F BS). All th e cells were cultured at in a humidified incubator with 5% CO2 atmo s phe re.
3. In vitro SUMOylation and de‐SU MOylation assays
The SUMO yl ation re ac tions were performed according to th e manufacture’s instruction (BML‐UW8955‐ 0001; ENZO) and were described previously (1) . Briefly, 200 nM of purified HIS‐JAK 2 wa s mixed wit h reco mbinant SUMOs in reac ti on bu ffer (20 μl) containing Mg‐ AT P, SUMO E1, and SUMO E2, followed by incubation at 37°C fo r 60 min. […]
Cell viability was detected using Sulforhodamine B (SRB) assay as described previously (3).
Absorbance at 51 0 nm was detected using a SpectraMax Re a d e r (Molecular Devices) and an alyzed with SoftMax Analys is Software (Molecular Devices). […]

Structure (SMILES)	IC50 of UA derivatives to inhibit resistant cells together with cisplatin (in words) (IGROV1 CR cells [1])	toxicity to cells of compound alone (IGROV1 CR cells [2])
C[C@H]1[C@H](C)CC[C@]2(C(=O)OCCNC(=O)OC(C)(C)C)CC[C@]3(C)C(=CC[C@@H]4[C@@]5(C)CC[C@H](O)C(C)(C)[C@@H]5CC[C@]43C)[C@H]12 [UAMMC3]	lower IC50	higher toxicity
C[C@H]1[C@H](C)CC[C@]2(C(=O)OCC(=O)NCCO)CC[C@]3(C)C(=CC[C@@H]4[C@@]5(C)CC[C@H](O)C(C)(C)[C@@H]5CC[C@]43C)[C@H]12 [UAMMC5]	lower IC50	higher toxicity

Reference: paper PMC8710297, “Identification of potent SENP1 inhibitors that inactivate SENP1/JAK2/STAT signaling pathway and overcome platinum drug resistance in ovarian cancer” (Clinical and Translational Medicine, 2021)
